Assay results published in publication PMC8196580, “Identification of Kaurane-Type Diterpenes as Inhibitors of Leishmania Pteridine Reductase I” (Molecules, 2021).
Read-outs that look alike come from different tables or passages of the source.

Tests used:
[1] = target: T1, LmPTR1 (Leishmania major, UniProt Q01782); assay: LmPTR1 enzyme inhibition assay (spectrophotometric, NADPH oxidation at 340 nm); assay type: biochemical; conditions: for IC50: NADPH 250 µM, pH 6.0, 30 °C, 0.1–128 µM
T1 construct: made in house
T1 sequence (Q01782 1-288): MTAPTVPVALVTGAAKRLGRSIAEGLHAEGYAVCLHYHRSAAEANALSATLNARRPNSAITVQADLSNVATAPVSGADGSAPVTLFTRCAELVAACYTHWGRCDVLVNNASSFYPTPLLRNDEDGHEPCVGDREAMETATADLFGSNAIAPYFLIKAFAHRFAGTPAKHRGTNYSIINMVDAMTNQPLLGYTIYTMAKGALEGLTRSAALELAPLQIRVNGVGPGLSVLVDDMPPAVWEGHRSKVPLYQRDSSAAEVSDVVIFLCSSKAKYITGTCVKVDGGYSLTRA
Procedure: The selected synthetic diterpene esters 135, 301, 302, 301a, and 302a were tested in vitro to experimentally determine their abilities to inhibit the enzymatic activity of LmPTR1 as an extension of the results provided by the in silico screening. […] The IC50 was then calculated for the tested diterpenes, and these values were used to calculate the apparent inhibitory constant (Ki^app) (Table 3) using the Cheng–Prusoff equation, assuming reversible competitive inhibition and 1:1 stoichiometry. PMA, a known PTR1 inhibitor, was used as a positive control. […] Therefore, a reasonable inference based on this small set of compounds is that the presence of a p-hydroxyl group at the phenylpropanoid moiety might favor inhibitory activity, whereas a 9β-hydroxyl group at the diterpene moiety has a negative influence on LmPTR1 inhibition.
Recombinant LmPTR1 enzyme was obtained, purified, and kinetically characterized, as reported previously. The in vitro assessment of selected diterpenes (i.e., 135, 301, 302, 301a, and 302a) for LmPTR1 inhibitory activity was performed through the spectrophotometric monitoring of the enzymatic activity under balanced conditions: LmPTR1 (30 µg), 7,8-dihydro-L-biopterin (DHB, 20 µM), sodium citrate buffer (20 mM, pH 6.0), 30 °C, and a final assay volume of 600 µL. Each reaction was started by the addition of 250 µM NADPH. Absorbance was monitored at 340 nm (i.e., oxidation of NADPH to NADP+) for 240 s, and the resulting profile was used to measure the initial reaction rate (IRR) through the respective slope by linear regression. All recordings were performed in triplicate. PMA was used as the positive control. The resulting IRR values were used to calculate the % inhibition, as 100 − (Ri/Rc × 100), where Ri is the IRR in the presence of the inhibitor and Rc is the IRR in the absence of inhibitors (1% DMSO v/v final concentration). The % inhibition for at least five concentrations (range: 0.1–128 µM) for each test compound (diterpenes and PMA) were calculated, and concentration-response curves (% inhibition vs. Log[inhibitor]) were obtained by non-linear regression to determine the IC50 using GraphPad Prism 5.0 (GraphPad, San Diego, CA, USA). Finally, Ki^app values were calculated using the Cheng–Prusoff equation for competitive inhibition, assuming a 1:1 stoichiometry and that the inhibitor-binding reactions are reversible: Ki^app = IC50/(1 + [S]/Km), where [S] is the substrate (DHB) concentration and Km is the Michaelis constant. The substrate Km was calculated during the kinetic characterization of purified, recombinant LmPTR1.

[2] = test system: Plasmodium falciparum; parameters: method as in earlier work; conditions: in vitro, ref 27 (Nogueira et al.); cited from earlier work
[3] = test system: Leishmania donovani; parameters: method as in earlier work; conditions: in vitro, ref 27 (Nogueira et al.); cited from earlier work
[4] = test system: L6 cells; parameters: method as in earlier work; conditions: in comparison with L6 cells; ref 27 (Nogueira et al.); cited from earlier work
[5] = test system: L. major; assay: ChEMBL dataset of pIC50 values against L. major used for the RF model (Table S1); assay type: cell-based, Leishmania major; further: call rule not given here
[6] = test system: L. major; parameters: method as in ChEMBL; conditions: ref ChEMBL, cited from earlier work
[7] = recombinant LmPTR1, DHB 20 µM, read-out: IC50
[8] = Active/Inactive class assigned to the ChEMBL pIC50 value for Random forest model construction, ref ChEMBL
[9] = ChemBL structures with pIC50 values used for Random forest model construction, L. major
[10] = Active/Inactive class assigned to ChemBL structures for Random forest model construction (Table S1)
[11] = ChemBL structures with pIC50 values used for Random forest model construction (Table S1)

Row | SMILES | Outcome [5, 8] | pIC50 Value [6, 9] | Outcome [5, 10] | pIC50 Value [6, 11] | other results
1 | C=C1C[C@@]23CC[C@@H]4[C@](C)(C(=O)O[C@H]5C=C(C)[C@@H](O)C[C@@H]5C(C)C)CCC[C@@]4(C)C2CC[C@@H]1C3 (stereo partly drawn) [compound 135, 2β-hydroxy-menth-6-en-5β-yl ent-kaurenoate] |  |  |  |  | Ki ([1]; read-out: Ki^app): 1.88 µM; IC50 [1, 7]: 8.6 µM
2 | C=C1CC23CCC4C(C)(CCC(OC(=O)C=Cc5ccc(O)cc5)C4(C)C(=O)O)C2CCC1C3 (stereo not drawn) [302a, 3α-p-coumaroyloxy-ent-kaur-16-en-19-oic acid] |  |  |  |  | improvement of inhibitory activity versus 302 ([1]; 3α-p-coumaroyloxy instead of 3α-cinnamoyloxy): approximately 60%; Ki ([1]; read-out: Ki^app): 1.33 µM; IC50 [1, 7]: 6.1 µM
3 | C=C1C[C@@]23CCC4[C@](C)(C(=O)O)[C@H](OC(=O)/C=C/c5ccccc5)CC[C@@]4(C)[C@]2(O)CC[C@@H]1C3 (stereo partly drawn) [compound 301, 3α-Cinnamoyloxy-9β-hydroxy-ent-kaur-16-en-19-oic Acid] |  |  |  |  | Ki ([1]; read-out: Ki^app): 4.64 µM; IC50 [1, 7]: 21.2 µM
4 | C=C1C[C@@]23CCC4[C@](C)(C(=O)O)[C@H](OC(=O)/C=C/c5ccccc5)CC[C@@]4(C)[C@@H]2CC[C@@H]1C3 (stereo partly drawn) [compound 302, 3α-cinnamoyloxy-ent-kaur-16-en-19-oic acid] |  |  |  |  | Ki ([1]; read-out: Ki^app): 2.1 µM; IC50 [1, 7]: 9.6 µM
5 | CCc1nc(N)nc(N)c1-c1ccc(Cl)cc1 [PMA, pyrimethamine, reference compound] |  |  |  |  | Ki [1]: 0.24 µM; IC50 ([1]; IC50, recombinant LmPTR1, DHB 20 µM): 1.11 µM
6 | C=C1CC23CCC4C(C)(C(=O)O)C(OC(=O)C=Cc5ccc(O)cc5)CCC4(C)C2(O)CCC1C3 (stereo not drawn) [301a, 3α-p-coumaroyloxy-9β-hydroxy-ent-kaur-16-en-19-oic Acid] |  |  |  |  | Ki ([1]; read-out: Ki^app): 5.08 µM; IC50 [1, 7]: 23.2 µM
7 | C=C1C[C@@]23CC[C@@H]4[C@](C)(CO)[C@H](O)CC[C@@]4(C)[C@@H]2CC[C@@H]1C3 (single isomer, unassigned; ent-3) [ent-3-α-hydroxy-kaur-16-en-18-ol] |  |  |  |  | IC50 [2]: 3.5 µM; IC50 [3]: 2.5 µM; Selectivity index, SI [4]: > 10
8 | O=C(C(Cl)CCl)N1c2ccccc2Oc2ccccc21 (centres unmarked) [CHEMBL3758248] | Active | 5.02 |  |  | 
9 | CC1=C(C(=O)Nc2ccc(C(=O)/C=C/c3cccc([N+](=O)[O-])c3)cc2)C(c2ccc(C)cc2)NC(=S)N1 (centres unmarked) [CHEMBL3786068] |  |  | Active | 5.90 | 
10 | CCOC(=O)C1=C(C)NC(C)=C(C(=O)OC)C1c1cccc([N+](=O)[O-])c1 (centres unmarked) [CHEMBL475534] | Inactive | 4.48 |  |  | 
11 | O=[N+]([O-])c1ccc2nc(-c3cccnc3)[nH]c2c1 [CHEMBL159327] |  |  | Active | 5.48 | 
12 | Cc1ccsc1C(=O)/C=C/c1cc2cccc(C)c2nc1Cl [CHEMBL1940862] |  |  | Active | 5.54 | 
13 | O=C(CCl)N1c2ccccc2C=Cc2ccccc21 [CHEMBL3758271] | Inactive | 4.32 |  |  | 
14 | O=C(/C=C/c1ccc(-n2ccnc2)cc1)c1cc(Cl)ccc1Cl [CHEMBL570739] |  |  | Active | 5.54 | 
15 | C/C=C/C=C/c1nc2ccccc2n2cccc12 [CHEMBL3260206] |  |  | Active | 5.33 | 
16 | CCCC/C=C/C=C/c1nc2ccccc2n2cccc12 [CHEMBL3260214] |  |  | Active | 5.43 | 
17 | COc1ccc(-c2c(-c3ccccc3)nc3cnccn23)cc1 [CHEMBL3634351] | Inactive | 4.76 |  |  | 

Row | SMILES | Outcome [5, 8] | pIC50 Value [6, 9] | Outcome [5, 10] | pIC50 Value [6, 11] | other results
18 | O=[N+]([O-])c1ccc(-c2nnc(N3CCN(c4ccccc4)CC3)s2)o1 [CHEMBL448103] |  |  | Active | 7.00 | 
19 | CCN1CSC(=S)N(C(C)c2ccccc2)C1 (centres unmarked) [CHEMBL4286479] | Inactive | 4.34 |  |  | 
20 | Clc1cc(Cl)cc(-c2c(-c3ccccc3)nc3ccccn23)c1 [CHEMBL2151868] | Active | 5.11 |  |  | 
21 | Cc1ccc(C2(c3ccc(C)cc3)C(=O)N(c3ccccc3)C2c2cn(C)c3ccccc23)cc1 (centres unmarked) [CHEMBL2071564] |  |  | Active | 5.91 | 
22 | C[C@@H]1CC[C@@]2(OC1)O[C@H]1C[C@H]3C4=CCC5=CC(=O)[C@@H](O)C[C@]5(C)[C@H]4C[C@H](O)[C@]3(C)[C@H]1[C@@H]2C [CHEMBL455616] | Inactive | 4.15 |  |  | 
23 | COc1ccc([C@@H]2COc3c(ccc(O)c3CC=C(C)C)C2)c(OC)c1O [CHEMBL501755] | Active | 5.10 |  |  | 
24 | COc1ccccc1-c1nnc(-c2ccc(C(=O)N/N=C/c3ccc(O)cc3)cc2)o1 [CHEMBL4085064] | Active | 5.13 |  |  | 
25 | c1ccc(-c2nc3ccccn3c2-c2cncnc2)cc1 [CHEMBL2151871] | Inactive | 4.00 |  |  | 
26 | COc1ccc(OC)c(/C=C/C(=O)C2=Cc3cc(Cl)ccc3OC2)c1 [CHEMBL1095286] |  |  | Active | 5.52 | 
27 | O=[N+]([O-])c1ccc(-c2nnc(NCc3cn(Cc4ccc(F)cc4)nn3)s2)o1 [CHEMBL1951524] | Inactive | 4.67 |  |  | 
28 | CCC/C=C/C=C/c1nc2ccccc2n2cccc12 [CHEMBL3260210] |  |  | Active | 5.41 | 
29 | C[n+]1ccc(-c2c3nc(c(-c4cc[n+](C)cc4)c4ccc([nH]4)c(-c4cc[n+](C)cc4)c4nc(c(-c5cc[n+](C)cc5)c5ccc2[nH]5)C=C4)C=C3)cc1.Cc1ccc(S(=O)(=O)[O-])cc1.Cc1ccc(S(=O)(=O)[O-])cc1.Cc1ccc(S(=O)(=O)[O-])cc1.Cc1ccc(S(=O)(=O)[O-])cc1 [CHEMBL2170855] | Inactive | 4.68 |  |  | 
30 | Cc1ccc(-c2nc3ccccc3[nH]2)o1 [CHEMBL2298017] |  |  | Active | 5.37 | 
31 | COc1ccccc1-c1nnc(-c2ccc(C(=O)N/N=C/c3ccccn3)cc2)o1 [CHEMBL4069827] | Active | 5.04 |  |  | 
32 | COc1ccc(-c2ccc(OC)c3ccccc23)c2c1C=NCC2 [CHEMBL1277828] | Inactive | 4.33 |  |  | 
33 | O=[N+]([O-])c1ccc(-c2nnc(N3CCOCC3)s2)s1 [CHEMBL195645] | Inactive | 4.97 |  |  | 
